Where two headings read alike, the source gives them in different places.
Columns and labels:
[1] = test system: LUC reporter gene under the control of the PPARα 5′-flanking and promoter region; assay: LUC reporter gene activity in transiently transfected COS-1 cells (pMT-hGR); format: cell-based, Monkey; design: gene activation less than fluticasone propionate / luciferase activity/β-galactosidase (in percent (%) of Fluticasone propionate): concentration or dose not given beside the values; settings: for luciferase activity/β-galactosidase (in percent (%) of Fluticasone propionate): COS-1 cells, harvested after 72 h
Description: Monkey kidney COS-1 cells (ATCC CRL 1650) were grown in Dulbecco's modified Eagle's medium (Gibco BRL, Grand Island, N.Y.) as described elsewhere (9). Transient transfections of COS-1 cells were performed as described elsewhere (10). The cells were plated at a density of 2×10^5 cells/well. Each well received 5 μg test plasmid, 5 μg β-galactosidase control plasmid as an internal control and either 2 μg expression plasmid, pMT-hGR or pGL3-basic as carrier. Plasmid details: The mouse PPARα gene is described elsewhere (11). Vectors expressing the LUC reporter gene under the control of the PPARα5′-flanking and promoter region were constructed in the pGL3-LUC vector (Promega). The PPARα 5′-flanking sequence between −2800 bp and +100 bp was cloned into NheI digested pGL3-LUC to generate the PPAR (−2800/+100) LUC plasmid Each transfection was performed in triplicates. The cells were transfected 24 h after plating together with fresh medium containing ligand. After 72 h cells were harvested, cytosol extracts were prepared and LUC activities were measured according to the Promega protocol. Results were normalized against β-galactosidase activities measured by incubating 100 μl extract with 0.28 mg o-nitrophenyl-D-galactoside (ONPG) in 50 mM phosphate buffer pH 7.0, 10 mM KCl, 1 mM MgCl2 for 30 min at 30° C. and reading absorbance at 420 nm.

THP-1 cells = assay: CellTiter 96 Non-Radioactive cell proliferation (MTS) assay, 48 h; format: cell-based, human; settings: for IC50: THP1 cells, 48 hours incubation, read-out: THP1 cells, IC50 μM ± SD
Description: (§1) The U937 and THP-1 cell lines were seeded, 20 000 cells per well, in 96-well-plates. 50 μl cell culture medium was added to each well. At the same time test compounds were added in 5 different concentrations and incubated for 48 hours. The CellTiter 96® Non-Radioactive cell proliferation assay (Promega) was used to study the cytotoxicity of test compounds in these cells. This assay is a colorimetric method for determining the number of viable cells in proliferation or chemosensitivity assays. It is composed of solutions of a novel tetrazolium compound (3-(4,5-dimethylthiazol-2-yl)-5-(3-carboxymethoxyphenyl)-2-(4-sulfophenyl)-2H-tetrazolium, inner salt; MTS) and an electron coupling reagent (phenazine methosulfate; PMS). MTS is bioreduced by cells into a formazan product that is soluble in tissue culture medium. The absorbance of the formazan at 490 nm can be measured directly from 96 well assay plates without additional processing. The quantity of formazan product as measured by the amount of 490 nm absorbance is directly proportional to the number of living cells in culture (IC50 values). The test compounds were fluticasone propionate and fluticasone elaidic acid derivative.

U937 cells = assay: as above; format: cell-based, human; settings: for IC50: read-out: U937 cells, IC50 μM ± SD
Description: as §1

GM-CSF release = assay: Inhibition of IL-1β-stimulated GM-CSF release in A549 TRE cells; format: cell-based; settings: for IC50: IL-1β-stimulated, 24 hours exposure; for fold more potent inhibition of GM-CSF release compared to fluticasone propionate: versus fluticasone propionate
Description: IL-1β-stimulation causes an increase in granulocyte-macrophage colony-stimulating factor (GM-CSF) release after 24 hours in A549 TRE (AP-1 regulation) cells. Inhibition of the GM-CSF release is measured after 24 hours exposure to a test compound.

GRE-luciferase = assay: Induction of GRE-luciferase activity in stably transfected A549 GRE-luciferase cells; format: cell-based
[2] = listed as fluticasone elaidic acid ester derivative

| IC50 (THP-1 cells; Homo sapiens, THP-1) [µM] | IC50 (U937 cells; Homo sapiens, U-937, 48 hours incubation) [µM] | IC50 (GM-CSF release; Homo sapiens) [nM] | EC50 (GRE-luciferase; Homo sapiens, read-out: EC50 of induction of GRE-luciferase reporter activity) [nM] | Molecule | luciferase activity/β-galactosidase (in percent (%) of Fluticasone propionate) [1] [%] | luciferase activity/β-galactosidase (in percent (%) of Fluticasone propionate) ([1]; listed as flumethasone elaidic acid ester derivative) [%] | IC50 (THP-1 cells) [µM] | IC50 (U937 cells; 48 hours incubation) [µM] | IC50 (GM-CSF release) [nM] | fold more potent inhibition of GM-CSF release compared to fluticasone propionate (GM-CSF release) [fold] | fold more potent inhibition of GM-CSF release compared to fluticasone propionate (GM-CSF release; listed as flucticasone elaidic acid ester derivative) | fold more potent inhibition of GM-CSF release compared to fluticasone propionate (GM-CSF release; [2]) [fold] | effect on GRE-luciferase activity (GRE-luciferase) | luciferase activity/β-galactosidase (in percent (%) of Fluticasone propionate) ([1]; listed as Fluticasone elaidic acid ester derivative) [%] | luciferase activity/β-galactosidase (in percent (%) of Fluticasone propionate) [1, 2] [%] | gene activation less than fluticasone propionate ([1]; activation as a measure for side effects) [%] | fold decrease in side effects (activation of GRE elements) ([1]; versus fluticasone propionate) [fold] | activity in THP1 cells (resistance) (THP-1 cells; up to 100 μM) | activity in U937 cells (resistance) (U937 cells; up to 100 μM) |
| --- | --- | --- | --- | --- | --- | --- | --- | --- | --- | --- | --- | --- | --- | --- | --- | --- | --- | --- | --- |
| – | – | – | – | 6α,9α-Difluoro-16α-elaidoyloxy-11β-hydroxy-16α-methyl-3-oxoandrosta-1,4-diene-17β-carboxylic acid | 2 | 2 | – | – | – | – | – | – | – | – | – | – | – | – | – |
| – | – | – | – | CCCCCCCCC=CCCCCCCCC(=O)OC1(C(=O)SCF)C(C)CC2C3CC(F)C4=CC(=O)C=CC4(C)C3(F)C(O)CC21C (centres unmarked) [Fluticasone elaidic acid derivative] | – | – | 10 | 1 | 0.014 | 22 | more than 20 fold | 22 | lack of effect | 15 | 15 | 85 | 7 | – | – |
| > 100 | > 100 | 0.31 | 0.51 | CCC(=O)O[C@]1(C(=O)SCF)[C@H](C)C[C@H]2[C@@H]3C[C@H](F)C4=CC(=O)C=C[C@]4(C)[C@@]3(F)[C@@H](O)C[C@@]21C [Fluticasone propionate, reference compound] | 100 | – | – | – | – | – | – | – | – | – | – | – | – | no activity seen up to 100 μM | no activity seen up to 100 μM |
